The values that follow come from patent US20060199789A1, “medical composition” (Kyowa Hakko Kogyo Co., Ltd., priority 2003, published 2006).

One experiment concerns neutrophils in BALF. The experiment can be described thus: Antigen-induced respiratory neutrophil infiltration in rat (BALF). The conditions noted are these: Compound (I) 30 μg/rat, budesonide 10 μg/rat; for Number of neutrophils: mean±standard error. Format: in vivo, BN rats. As for the experimental part: (§1) Inhibitory Effect of Combined Administration of Compound (I) and Steroid Agent on Antigen-Induced Respiratory Eosinophil and Neutrophil Infiltration in Rat
(§2) The test was conducted according to a known method (Pulmonary Pharmacology, vol. 8, pp. 83-89 (1995)).
(§3) In the test, 6-week-old male BN rats (Charles River Japan) were used. The rats were placed in aluminum cages each containing 5 to 6 rats in a breeding room at room temperature (19° C. to 25° C.) and a humidity of 30% to 70% under illumination for 12 hours a day (7 a.m. to 7 p.m.) and bred by free intake of commercially available feeds and water.
(§4) A preparation (Compound (I)-lactose preparation) containing 5 mg of lactose (produced by DVM Corporation) to 1 mg of Compound (I) was prepared, and a suspension for administering Compound (I) was prepared by suspending the Compound (I)-lactose preparation in a 0.125 wt/vol % tyloxapol aqueous solution (ALEVAIRE: registered trade mark, produced by Azwell Inc.) so that the concentration of Compound (I) was 150 μg/mL. Also, a suspension for administering budesonide was prepared by suspending lactose and budesonide (manufactured by Sigma Corporation) in a 0.125 wt/vol % tyloxapol aqueous solution so that the concentrations of lactose and budesonide were 750 μg/mL and 50 μg/mL, respectively. Furthermore, a suspension for combined administration was prepared by suspending budesonide and the Compound (I)-lactose preparation prepared as described above in a 0.125 wt/vol % tyloxapol aqueous solution so that the concentrations of budesonide and Compound (I) were 50 μg/mL and 150 μg/mL, respectively. On the other hand, a solvent for administration was prepared by dissolving lactose in a 0.125 wt/vol % tyloxapol aqueous solution so that the concentration was 7.5 mg/mL.
(§5) The rats were subcutaneously administered with 1 mL of a suspension of 1 mg of ovalbumin (OVA, manufactured by Sigma Co.) and 200 mg of aluminum hydroxide (manufactured by Wako Pure Chemicals Industries, Ltd.) suspended in 1 mL of physiological saline (manufactured by Otsuka Pharmaceutical Co., Ltd.). Then, 0.5 mL of a suspension of killed Bordetella pertussis cells (2×10^10 cells/1 mL physiological saline, manufactured by Kaken Pharmaceutical Co., Ltd.) was intraperitoneally administered to perform active sensitization. Fourteen days after the active sensitization, the rats were placed in a plastic chamber (30×50×30 cm), and an 1 wt/vol % OVA physiological saline solution was nebulized for 10 minutes using an ultrasonic nebulizer (manufactured by Omron Corporation) to perform antigen challenge. […]
(§6) The total number of the leukocytes in BALF was measured with an automatic leukocyte counter (manufactured by Nihon Kohden Corporation). […]

The subject of a further experiment is eosinophils in BALF. Put plainly: Antigen-induced respiratory eosinophil infiltration in rat (BALF). The conditions noted are these: Compound (I) 30 μg/rat, budesonide 10 μg/rat; for Inhibition ratio (number of eosinophils) / Number of eosinophils: OVA-sensitized BN rats, intrabronchial 30 min before antigen challenge, BAL 24 h after; for Number of eosinophils: mean±standard error. It is filed as in vivo, BN rats. As for the experimental part:
as §1, §2, §3, §4
as §5, with “challenge. Thirty minutes before the antigen-challenge, 100 μL of each of the suspensions for administration prepared as described above was intrabronchially administered to each of the right and left bronchi, i.e., administered in a total of 200 μL (medicine-administered group). Similarly, thirty minutes before the antigen challenge, a group which the solvent for administration was intrabronchially administered (solvent-administered group) was prepared. Also, a group which the solvent for administration was intrabronchially administered and a physiological saline was nebulized instead of the 1 wt/vol % OVA physiological saline solution (physiological saline-administered group) was prepared.” for “challenge.”
as §6

The mark [1] stands for this setting: OVA-sensitized BN rats, intrabronchial 30 min before antigen challenge, BAL 24 h after.

In the case of `CCCC1O[C@@H]2C[C@H]3[C@@H]4CCC5=CC(=O)C=C[C@]5(C)[C@H]4[C@@H](O)C[C@]3(C)[C@]2(C(=O)CO)O1` (stereo partly drawn) [Budesonide, budesonide, reference compound], in the experiment with neutrophils in BALF (setting [1]), the Number of neutrophils is 2.50 ± 0.31 10^6/BALF. Also, in the experiment on eosinophils in BALF, the “Inhibition ratio (number of eosinophils)” value worked out at 54% and the Number of eosinophils is given as 0.26 ± 0.06 10^6/BALF.

Take `COc1ccc(C(=O)Cc2c(Cl)cncc2Cl)c2c1OC1(CCCC1)O2` [Compound (I), 7-[2-(3,5-dichloro-4-pyridyl)-1-oxoethyl]-4-methoxy-spiro[1,3-benzodioxol-2,1′-cyclopentane]]: in the experiment on neutrophils in BALF (sole or combined), the “Effect on the number of neutrophils in BALF (in words)” value was “not significantly affected”. In addition, the “Inhibition ratio (number of neutrophils)” value with neutrophils in BALF (OVA-sensitized BN rats, intrabronchial 30 min before antigen challenge, BAL 24 h after, N.E. = No effect) came to 3%. The Number of neutrophils with neutrophils in BALF (setting [1]) is 2.28 ± 0.27 10^6/BALF. For the same compound, the “Inhibitory effect against increases in the number of eosinophils in BALF (in words)” value in the experiment on eosinophils in BALF (sole or combined) is recorded as “inhibitory effect against increases in the number of eosinophils was exhibited”. In addition, in the experiment on eosinophils in BALF, the “Inhibition ratio (number of eosinophils)” value is reported as 54% and the Number of eosinophils is listed as 0.26 ± 0.08 10^6/BALF.
